Data as given in US10647680B2, “Urea compound, preparation method therefor and medical use thereof” (Ancureall Pharmaceutical (Shanghai) Co., Ltd., priority 2016, dated 2020).

What was measured:
[1] = system: MV4-11 (FLT3 ITD+/+ mutant type); assay: In vitro growth inhibition (GI50), MV4-11; type: cell-based, human; details: Homo sapiens, MV4-11; Cell lines of leukemia; read-out: GI 50 MV4-11 FLT3 (ITD +/+)
[2] = system: MOLM-13 (FLT3 ITD+/− mutant type); assay: In vitro growth inhibition (GI50), MOLM-13; type: cell-based, human; details: Homo sapiens, MOLM-13; Cell lines of leukemia; read-out: GI 50 MOLM-13 FLT3 (ITD+/−)
RS4; 11 (FLT3 wild type) = assay: In vitro growth inhibition (GI50), RS4; 11; type: cell-based, human; details: Homo sapiens, RS4-11; Cell lines of leukemia; read-out: GI 50 RS4: 11 FLT3 (WT)
[3] = system: K562 (FLT3 negative expression, positive expression of BCR-ABL fusion protein); assay: In vitro growth inhibition (GI50), K562; type: cell-based; details: Homo sapiens, Cell lines of leukemia, read-out: GI 50 K562 BCR-ABL
[4] = system: RAMOS (positive expression of Brutons tyrosine protein kinase); assay: In vitro growth inhibition (GI50), RAMOS; type: cell-based; details: Homo sapiens, Cell lines of leukemia, read-out: GI 50 Ramos BTK
U937 (FLT3 wild-type) = assay: In vitro growth inhibition (GI50), U937; type: cell-based; details: Homo sapiens, U-937; Cell lines of leukemia; read-out: GI 50 U937 FLT 3(WT)
[5] = system: Kasumi-1 (c-Kit N822K mutant type); assay: In vitro growth inhibition (GI50), Kasumi-1; type: cell-based; details: Homo sapiens, Cell lines of leukemia, read-out: GI 50 Kasumi-1 Kit (N822K)
In short: (§1)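 After 3–5 days of treatment (top concentration 5,000 nM, serially diluted 2- or 10-fold to 0.01 nM, solvent ≤1%), viability was read by CCK8 at OD450. Growth rate was normalised to the time-zero and solvent-control wells, and GI50 was derived from the curve. Cultures in RPMI1640 + 10% FBS.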

[6] = system: KG-1 (expressing FGFR1OP2-FGFR1 fusion protein); assay: In vitro growth inhibition (GI50), KG-1; type: cell-based; details: Homo sapiens; Cell lines of leukemia; read-out: GI 50 KG-1 FGFR1OP 2-FGFR1
HL-60 (FLT3 wild type) = assay: In vitro growth inhibition (GI50), HL-60; type: cell-based; details: Homo sapiens, Cell lines of leukemia, read-out: GI 50 HL60 FLT3 (WT)
In short: as §1

[7] = system: OCI-AML3 (NPMc+ mutant type); assay: In vitro growth inhibition (GI50), OCI-AML3; type: cell-based; details: Homo sapiens, OCI-AML-3; Cell lines of leukemia; read-out: GI 50 OCI- AML3 NPMc+

| GI50 [1] | GI50 [2] | GI50 (RS4; 11 (FLT3 wild type)) | GI50 [3] | GI50 [4] | GI50 (U937 (FLT3 wild-type)) | GI50 (HL-60 (FLT3 wild type)) | GI50 [7] | Compound | GI50 [5] | GI50 [6] |
| --- | --- | --- | --- | --- | --- | --- | --- | --- | --- | --- |
| 100 to 1000 nM | 100 to 1000 nM | > 1000 nM | > 1000 nM | > 1000 nM | > 1000 nM | > 1000 nM | > 1000 nM | Cc1cc(NC(=O)Nc2ccc(-n3cnc4ccccc43)cc2)n[nH]1 [Compound 64, 1-(4-benzimidazol-1-yl-phenyl)-3-(5-methyl-1H-pyrazol-3-yl)-urea] | > 1000 nM | 100 to 1000 nM |
| 100 to 1000 nM | 100 to 1000 nM | > 1000 nM | > 1000 nM | > 1000 nM | > 1000 nM | > 1000 nM | > 1000 nM | O=C(Nc1ccc(-n2cnc3ccccc32)cc1)Nc1cc(-c2ccccc2)[nH]n1 [Compound 65, 1-(4-benzimidazol-1-yl-phenyl)-3-(5-phenyl-1H-pyrazol-3-yl)-urea] | > 1000 nM | > 1000 nM |
| 10 to 100 nM | 10 to 100 nM | > 1000 nM | > 1000 nM | > 1000 nM | > 1000 nM | > 1000 nM | > 1000 nM | O=C(Nc1ccc(-n2cnc3ccccc32)cc1)Nc1cc(C2CC2)n[nH]1 [Compound 66, 1-(4-benzimidazol-1-yl-phenyl)-3-(5-cyclopropyl-2H-pyrazol-3-yl)-urea] | > 1000 nM | > 1000 nM |
| 0.1 to 1 nM | 0.1 to 1 nM | 100 to 1000 nM | 100 to 1000 nM | 100 to 1000 nM | 100 to 1000 nM | 100 to 1000 nM | > 1000 nM | O=C(Nc1ccc(-n2cnc3ccccc32)cc1)Nc1cc(C(F)(F)F)n[nH]1 [Compound 67, 1-(4-benzimidazol-1-yl-phenyl)-3-(5-trifluoromethyl-2H-pyrazole-3-yl)-urea] | 100 to 1000 nM | 100 to 1000 nM |
| 0.1 to 1 nM | 0.1 to 1 nM | 100 to 1000 nM | 100 to 1000 nM | > 1000 nM | > 1000 nM | > 1000 nM | > 1000 nM | CC(C)(C)c1cc(NC(=O)Nc2ccc(-n3cnc4cc(F)ccc43)cc2)[nH]n1 [Compound 69, 1-(5-tert-butyl-2H-pyrazol-3-yl)-3-[4-(5-fluoro-benzimidazol-1-yl)-phenyl]-urea] | > 1000 nM | > 1000 nM |
| 1 to 10 nM | 1 to 10 nM | > 1000 nM | > 1000 nM | > 1000 nM | > 1000 nM | > 1000 nM | > 1000 nM | CC(C)(C)c1cc(NC(=O)Nc2ccc(-n3cnc4cc(C(F)(F)F)ccc43)cc2)[nH]n1 [Compound 70, 1-(5-tert-butyl-2H-pyrazol-3-yl)-3-[4-(5-trifluoromethyl-benzimidazol-1-yl)-phenyl]-urea] | > 1000 nM | > 1000 nM |

The remaining lines, values behind:

| Compound | GI50 [1] | GI50 [2] | GI50 (RS4; 11 (FLT3 wild type)) | GI50 [3] | GI50 [4] | GI50 (U937 (FLT3 wild-type)) | GI50 (HL-60 (FLT3 wild type)) | GI50 [7] | GI50 [5] | GI50 [6] |
| --- | --- | --- | --- | --- | --- | --- | --- | --- | --- | --- |
| CC(C)(C)c1cc(NC(=O)Nc2ccc(-n3cnc4cc(Br)cnc43)cc2)no1 [Compound 51, 1-[4-(6-bromo-imidazo[4,5-b]pyridin-3-yl)-phenyl]-3-(5-tert-butyl-isoxazol-3-yl)-urea] | 1 to 10 nM | 1 to 10 nM | > 1000 nM | > 1000 nM | > 1000 nM | > 1000 nM | > 1000 nM | > 1000 nM | > 1000 nM | > 1000 nM |
| CC(C)(C)c1cc(NC(=O)Nc2ccc(-n3cnc4cc(C(F)(F)F)cnc43)cc2)no1 [Compound 52, 1-(5-tert-butyl-isoxazol-3-yl)-3-[4-(6-trifluoromethyl-imidazo[4,5-b]pyridin-3-yl)-phenyl]-urea] | 1 to 10 nM | 1 to 10 nM | > 1000 nM | > 1000 nM | > 1000 nM | > 1000 nM | > 1000 nM | > 1000 nM | > 1000 nM | > 1000 nM |
| Cc1ccc2ncn(-c3ccc(NC(=O)Nc4cc(C(C)(C)C)on4)cc3)c2n1 [Compound 54, 1-(5-tert-butyl-isoxazol-3-yl)-3-[4-(5-methylimidazo[4,5-b]pyridine-3-yl)-phenyl]-urea] | 1 to 10 nM | 1 to 10 nM | > 1000 nM | > 1000 nM | > 1000 nM | > 1000 nM | > 1000 nM | > 1000 nM | > 1000 nM | > 1000 nM |
| Cc1ccnc2c1ncn2-c1ccc(NC(=O)Nc2cc(C(C)(C)C)on2)cc1 [Compound 55, 1-(5-tert-butyl-isoxazol-3-yl)-3-[4-(7-methylimidazo[4,5-b]pyridin-3-yl)-phenyl]-urea] | 10 to 100 nM | 10 to 100 nM | > 1000 nM | > 1000 nM | > 1000 nM | > 1000 nM | > 1000 nM | 100 to 1000 nM | > 1000 nM | > 1000 nM |
| CC(C)(C)c1cc(NC(=O)Nc2ccc(-n3cnc4ncccc43)cc2)no1 [Compound 56, 1-(5-tert-butyl-isoxazol-3-yl)-3-(4-imidazo[4,5-b]pyridin-1-yl-phenyl)-urea] | 10 to 100 nM | 10 to 100 nM | > 1000 nM | > 1000 nM | > 1000 nM | > 1000 nM | > 1000 nM | > 1000 nM | > 1000 nM | 100 to 1000 nM |
| COc1ncnc2ncn(-c3ccc(NC(=O)Nc4cc(C(C)(C)C)on4)cc3)c12 [Compound 57, 1-(5-tert-butyl-isoxazol-3-yl)-3-[4-(6-methoxyl-purin-7-yl)-phenyl]-urea] | 10 to 100 nM | 10 to 100 nM | > 1000 nM | > 1000 nM | > 1000 nM | > 1000 nM | > 1000 nM | > 1000 nM | > 1000 nM | > 1000 nM |
| COc1ncnc2c1ncn2-c1ccc(NC(=O)Nc2cc(C(C)(C)C)on2)cc1 [Compound 58, 1-(5-tert-butyl-isoxazol-3-yl)-3-[4-(6-methoxylpurin-9-yl)-phenyl]-urea] | 10 to 100 nM | 10 to 100 nM | > 1000 nM | > 1000 nM | > 1000 nM | > 1000 nM | > 1000 nM | > 1000 nM | > 1000 nM | > 1000 nM |
| CN(C)c1ncnc2ncn(-c3ccc(NC(=O)Nc4cc(C(C)(C)C)on4)cc3)c12 [Compound 59, 1-(5-tert-butyl-isoxazol-3-yl)-3-[4-(6-dimethylamino-purin-7-yl)-phenyl]-urea] | 1 to 10 nM | 1 to 10 nM | 100 to 1000 nM | 100 to 1000 nM | > 1000 nM | > 1000 nM | > 1000 nM | > 1000 nM | > 1000 nM | 100 to 1000 nM |
| O=C(Nc1ccc(-n2cnc3ccccc32)cc1)Nc1nccs1 [Compound 60, 1-(4-benzimidazol-1-yl-phenyl)-3-thiazol-2-yl-urea] | > 1000 nM | > 1000 nM | > 1000 nM | > 1000 nM | > 1000 nM | > 1000 nM | > 1000 nM | > 1000 nM | > 1000 nM | 100 to 1000 nM |
| Cc1csc(NC(=O)Nc2ccc(-n3cnc4ccccc43)cc2)n1 [Compound 61, 1-(4-benzimidazol-1-yl-phenyl)-3-(4-methyl-thiazol-2-yl)-urea] | > 1000 nM | > 1000 nM | > 1000 nM | > 1000 nM | > 1000 nM | > 1000 nM | > 1000 nM | > 1000 nM | > 1000 nM | > 1000 nM |
| O=C(Nc1ccc(-n2cnc3ccccc32)cc1)Nc1nncs1 [Compound 62, 1-(4-benzimidazol-1-yl-phenyl)-3-[1,3,4]thiadiazol-2-yl-urea] | > 1000 nM | > 1000 nM | > 1000 nM | > 1000 nM | > 1000 nM | > 1000 nM | > 1000 nM | > 1000 nM | > 1000 nM | > 1000 nM |
| CC(C)(C)c1nnc(NC(=O)Nc2ccc(-n3cnc4ccccc43)cc2)s1 [Compound 63, 1-(4-benzimidazol-1-yl-phenyl)-3-(5-tert-butyl-[1,3,4]thiadiazole-2-yl)-urea] | 1 to 10 nM | 1 to 10 nM | > 1000 nM | > 1000 nM | > 1000 nM | > 1000 nM | > 1000 nM | > 1000 nM | > 1000 nM | > 1000 nM |
